In patent US20250195521A1 (Revolution Medicines, Inc., priority 2020, published 2025):

How the values were obtained:
[1] = molecular target: KRAS G13D binding to BRAF RBD (Homo sapiens (Human), UniProt P01116+P62937, G13D); experiment: Ras-Raf disruption/FRET/MOA assay, KRAS G13D; type: biochemical
From the text: (§1) Note—The following protocol describes a procedure for monitoring disruption of K-Ras G12C(GMP-PNP) binding to BRAF^RBD by a compound of the invention. This protocol may also be executed substituting other Ras proteins or nucleotides.
(§2) The purpose of this biochemical assay was to measure the ability of test compounds to facilitate ternary complex formation between a nucleotide-loaded K-Ras isoform and Cyclophilin A; the resulting ternary complex disrupts binding to a BRAF^RBD construct, inhibiting K-Ras signaling through a RAF effector. Data is reported as IC50 values.
(§3) Compound was present in plate wells as a 10-point 3-fold dilution series starting at a final concentration of 30 μM. After incubation at 25° C. for 3 hours, a mixture of Anti-His Eu—W1024 and anti-GST allophycocyanin was then added to assay sample wells at final concentrations of 10 nM and 50 nM, respectively, and the reaction incubated for an additional 1.5 hours. […] Compounds that facilitate disruption of a K-Ras: RAF complex were identified as those eliciting a decrease in the TR-FRET ratio relative to DMSO control wells.

[2] = molecular target: NRAS G12C binding to BRAF RBD (Homo sapiens (Human), UniProt P01111+P62937, G12C); experiment: Ras-Raf disruption/FRET/MOA assay, NRAS G12C; type: biochemical
Sequence of NRAS G12C binding to BRAF RBD (P01111 whole entry G12C): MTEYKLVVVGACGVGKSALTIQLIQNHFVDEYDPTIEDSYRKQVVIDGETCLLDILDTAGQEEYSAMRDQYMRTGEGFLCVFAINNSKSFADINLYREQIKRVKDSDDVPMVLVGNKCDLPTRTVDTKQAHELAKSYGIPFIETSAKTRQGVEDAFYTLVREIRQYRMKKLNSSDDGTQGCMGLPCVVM
Sequence of NRAS G12C binding to BRAF RBD (P62937 whole entry): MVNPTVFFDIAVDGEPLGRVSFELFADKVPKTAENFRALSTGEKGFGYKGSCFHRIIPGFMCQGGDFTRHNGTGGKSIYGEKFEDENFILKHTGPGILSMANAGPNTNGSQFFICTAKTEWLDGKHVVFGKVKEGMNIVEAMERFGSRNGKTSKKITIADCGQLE
From the text: as §1, §2, §3

NCI-H358 (K-Ras G12C) = experiment: CellTiter-Glo cell viability assay, NCI-H358; type: cell-based, human; details: Homo sapiens, NCI-H358, 120 h, 5-day treatment; read-out: H358 Cell Viability assay data (K-Ras G12C, IC50)
Summary of the method: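 After direct compound addition, plates were incubated to day 5 and equilibrated at room temperature for about 30 minutes before CellTiter-Glo reading. Values derive from luminescence relative to the DMSO mean, fitted with a four-parameter logistic model.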

[3] = molecular target: K-Ras G12C(GMP-PNP) binding to BRAF RBD (Homo sapiens (Human), UniProt P01116+P62937, G12C); experiment: Disruption of BRAF RBD interaction with K-Ras (FRET / MOA assay), K-Ras G12C; type: biochemical; details: read-out: KRAS G12C FRET IC50
Sequence of K-Ras G12C(GMP-PNP) binding to BRAF RBD (P01116 other isoform, or with tags, fused parts or gaps G12C): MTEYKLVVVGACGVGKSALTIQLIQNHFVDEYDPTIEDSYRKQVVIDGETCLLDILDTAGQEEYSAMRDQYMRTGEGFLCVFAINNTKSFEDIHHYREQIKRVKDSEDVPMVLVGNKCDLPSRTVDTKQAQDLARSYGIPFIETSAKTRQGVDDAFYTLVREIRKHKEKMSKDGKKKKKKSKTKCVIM
Sequence of K-Ras G12C(GMP-PNP) binding to BRAF RBD (P62937 whole entry, canonical isoform): as the sequence (P62937 whole entry) above
Summary of the method: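 Incubation of compound (up to 30 μM final, 3-fold steps) with GMP-PNP-type loaded Ras isoform, cyclophilin A and BRAF RBD ran 3 h at 25° C, followed by 1.5 h with detection antibodies. Disruption appears as a reduced TR-FRET ratio compared with DMSO controls, expressed as IC50.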

[4] = tested on: Capan-1 cells (K-Ras G12V); experiment: CellTiter-Glo cell viability, Capan-1; type: cell-based, human; details: Homo sapiens, CAPAN-1, 120 h, K-Ras G12V, 5-day treatment; read-out: Capan-1 Cell Viability IC50
Summary of the method: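 Endpoint: CellTiter-Glo luminescence on day 5, following ~30 min at room temperature. Data as (sample/mean DMSO)×100, four-parameter logistic fit.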

[5] = molecular target: KRAS G12S binding to BRAF RBD (Homo sapiens (Human), UniProt P01116+P62937, G12S); experiment: Ras-Raf disruption/FRET/MOA assay, KRAS G12S; type: biochemical
Sequence of KRAS G12S binding to BRAF RBD (P01116 other isoform, or with tags, fused parts or gaps G12S): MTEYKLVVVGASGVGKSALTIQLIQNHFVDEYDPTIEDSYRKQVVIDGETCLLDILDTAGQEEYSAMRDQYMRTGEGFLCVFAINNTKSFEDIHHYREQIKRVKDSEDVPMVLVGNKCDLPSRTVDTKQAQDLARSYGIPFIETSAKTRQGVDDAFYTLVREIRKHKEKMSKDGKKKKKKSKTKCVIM
Sequence of KRAS G12S binding to BRAF RBD (P62937 whole entry): as the sequence (P62937 whole entry) above
From the text: as §1, §2, §3

[6] = molecular target: KRAS WT binding to BRAF RBD (Homo sapiens (Human), UniProt P01116+P62937); experiment: Ras-Raf disruption/FRET/MOA assay, KRAS WT; type: biochemical
Sequence of KRAS WT binding to BRAF RBD (P01116 other isoform, or with tags, fused parts or gaps): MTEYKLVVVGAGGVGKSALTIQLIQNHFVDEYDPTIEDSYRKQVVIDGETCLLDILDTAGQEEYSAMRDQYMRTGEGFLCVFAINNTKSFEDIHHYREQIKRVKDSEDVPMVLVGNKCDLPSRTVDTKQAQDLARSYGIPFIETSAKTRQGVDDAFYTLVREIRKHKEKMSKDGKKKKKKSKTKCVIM
Sequence of KRAS WT binding to BRAF RBD (P62937 whole entry, the tested form may be a part): as the sequence (P62937 whole entry) above
From the text: Disruption of B-Raf Ras-binding Domain (BRAF^RBD) Interaction with K-Ras by Compounds of the Invention (also called a FRET assay or an MOA assay)
as §1, §2
as §3, with “In assay buffer containing 25 mM HEPES pH 7.3, 0.002% Tween20, 0.1% BSA, 100 mM NaCl and 5 mM MgCl2, tagless Cyclophilin A, His6-K-Ras-GMPPNP, and GST-BRAF^RBD were combined in a 384-well assay plate at final concentrations of 25 μM, 12.5 nM and 50 nM, respectively. Compound was” for “Compound was”

[7] = tested on: K-Ras G12C (NCI-H358 cells); experiment: Potency assay: pERK in NCI-H358 cells; type: cell-based, human; details: Homo sapiens; NCI-H358 cells, 4 hours; read-out: pERK EC50 (H358 KRAS G12C)
Summary of the method: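 Cells plated the day before were exposed for 4 h at 37° C, 5% CO2 to a 10-point, 3-fold DMSO dilution series (10 mM top stock), in duplicate. Phospho-ERK was read by AlphaLISA SureFire Ultra or by In-Cell Western with DRAQ5 DNA stain, and IC50 came from a 4-parameter sigmoidal fit.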

Sequence of KRAS G13D binding to BRAF RBD (P01116 other isoform, or with tags, fused parts or gaps G13D): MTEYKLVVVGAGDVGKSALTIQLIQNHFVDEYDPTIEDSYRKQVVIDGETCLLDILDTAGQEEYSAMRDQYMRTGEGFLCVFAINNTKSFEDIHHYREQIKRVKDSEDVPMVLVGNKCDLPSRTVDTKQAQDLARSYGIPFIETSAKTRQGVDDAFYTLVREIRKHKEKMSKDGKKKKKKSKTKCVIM
Sequence of KRAS G13D binding to BRAF RBD (P62937 whole entry): as the sequence (P62937 whole entry) above

| SMILES | IC50 [1] [nM] | IC50 [2] [nM] | IC50 (NCI-H358 (K-Ras G12C)) [nM] | IC50 [3] [nM] | IC50 [4] [nM] | IC50 [5] [nM] | IC50 [6] [nM] | EC50 [7] [nM] |
| --- | --- | --- | --- | --- | --- | --- | --- | --- |
| CCn1c(-c2cccnc2[C@H](C)OC)c2c3cc(ccc31)-c1csc(n1)C[C@H](NC(=O)[C@H](C(C)C)N1CC[C@]3(CCN(C(=O)C#CC(C)(C)N(C)C)C3)C1=O)C(=O)N1CCC[C@H](N1)C(=O)OCC(C)(C)C2 (single isomer, unassigned) [Compound A425] | > 10000 | 10 to 100 | – | – | – | – | – | – |
| CC#CC(=O)N1CC[C@]2(CCN([C@H](C(=O)N[C@H]3Cc4cccc(c4)-c4ccc5c(c4)c(c(-c4cccnc4[C@H](C)OC)n5CC)CC(C)(C)COC(=O)[C@@H]4CCCN(N4)C3=O)C(C)C)C2=O)C1 (single isomer, unassigned) [Compound A426] | > 10000 | 1000 to 10000 | – | – | – | – | – | – |
| C=CC(=O)N1CC[C@H](C(=O)N(C)[C@H](C(=O)N[C@H]2Cc3cc(O)cc(c3)-c3ccc4c(c3)c(c(-c3cccc(CN(C)C)c3)n4CC)CC(C)(C)COC(=O)[C@@H]3CCCN(N3)C2=O)C(C)C)C1 [Compound A106] | > 10000 | 1000 to 10000 | 100 to 1000 | – | – | – | – | – |
| C=CC(=O)N1CC[C@H](C(=O)N(C)[C@H](C(=O)N[C@H]2Cc3cccc(c3)-c3ccc4c(c3)c(c(-c3cccnc3[C@H](C)OC)n4CC)CC(C)(C)COC(=O)[C@@H]3CCCN(N3)C2=O)C(C)C)C1 [Compound A114] | > 10000 | > 10000 | – | > 10000 | – | – | – | – |
| C=CC(=O)N1CC[C@H](C(=O)N(C)[C@H](C(=O)N[C@H]2Cc3cc(O)cc(c3)-c3ccc4c(c3)c(c(-c3cccnc3COC)n4CC)CC(C)(C)COC(=O)[C@@H]3CCCN(N3)C2=O)C(C)C)C1 [Compound A137] | > 10000 | 100 to 1000 | > 10000 | – | – | – | – | – |
| CCn1c(-c2cccnc2COC)c2c3cc(ccc31)-c1cc(C)cc(c1)C[C@H](NC(=O)[C@@H](C(C)C)N(C)C(=O)[C@H]1CCN(C(=O)C#CCN(C)C)C1)C(=O)N1CCC[C@H](N1)C(=O)OCC(C)(C)C2 [Compound A156] | 1000 to 10000 | 100 to 1000 | – | – | – | – | – | – |
| CCn1c(-c2cccnc2COC)c2c3cc(ccc31)-c1cc(O)cc(c1)C[C@H](NC(=O)[C@H](C(C)C)N(C)C(=O)[C@H]1CCN(C(=O)/C=C\CN(C)C)C1)C(=O)N1CCC[C@H](N1)C(=O)OCC(C)(C)C2 [Compound A161] | 1000 to 10000 | 100 to 1000 | – | – | – | – | – | – |
| CC#CC(=O)N1CC[C@H](C(=O)N(C)[C@H](C(=O)N[C@H]2Cc3cc(O)cc(c3)-c3ccc4c(c3)c(c(-c3cncnc3)n4CC)CC(C)(C)COC(=O)[C@@H]3CCCN(N3)C2=O)C(C)C)C1 [Compound A169] | > 10000 | 100 to 1000 | 100 to 1000 | 100 to 1000 | – | – | – | – |
| CCn1c(-c2cnccc2COC)c2c3cc(ccc31)-c1cc(O)cc(c1)C[C@H](NC(=O)[C@H](C(C)C)N(C)C(=O)O[C@H]1CCOC1)C(=O)N1CCC[C@H](N1)C(=O)OCC(C)(C)C2 [Compound A260] | – | – | < 10 | 10 to 100 | 1000 to 10000 | 10 to 100 | 10 to 100 | – |
| C/C=C/S(=O)(=O)N1CC[C@H](C(=O)N(C)[C@H](C(=O)N[C@H]2Cc3cc(O)cc(c3)-c3ccc4c(c3)c(c(-c3ccncc3[C@H](C)OC)n4CC)CC(C)(C)COC(=O)[C@@H]3CCCN(N3)C2=O)C(C)C)C1 [Compound A280] | 100 to 1000 | 100 to 1000 | 10 to 100 | 10 to 100 | – | – | 10 to 100 | < 5000 |
| C=CC(=O)N1CC[C@H](C(=O)N(C)[C@H](C(=O)NC2C[C@@H]3CN(CCO3)c3ccc4c(c3)c(c(-c3cccnc3COC)n4CC)CC(C)(C)COC(=O)[C@@H]3CCCN(N3)C2=O)C(C)C)C1 (stereo partly shown) [Compound A318] | > 10000 | > 10000 | > 10000 | > 10000 | – | – | – | – |
| CCn1c(-c2cccnc2[C@H](C)OC)c2c3cc(ccc31)-c1csc(n1)C[C@H](NC(=O)[C@H](C(C)C)N(C)C(=O)N1CC(C#N)C1)C(=O)N1CCC[C@H](N1)C(=O)OCC(C)(C)C2 [Compound A382] | – | – | < 10 | – | – | 10 to 100 | 10 to 100 | – |
| CCn1c(-c2cccnc2[C@H](C)OC)c2c3cc(ccc31)-c1cc(cc(C(F)F)c1)C[C@H](NC(=O)[C@@H](COC1CN(C(=O)C#CC(C)(C)N(C)C)C1)C(C)C)C(=O)N1CCC[C@H](N1)C(=O)OCC(C)(C)C2 [Compound A404] | > 10000 | 100 to 1000 | – | – | – | – | – | – |
| C=CC(=O)N1CC[C@H](C(=O)N(C)[C@H](C(=O)N[C@H]2Cc3csc(n3)-c3ccc4c(c3)c(c(-c3cc(N5CCN(C)CC5)cnc3[C@H](C)OC)n4CC(C)(F)F)CC(C)(C)COC(=O)[C@@H]3CCCN(N3)C2=O)C(C)C)C1 [Compound A410] | 100 to 1000 | 10 to 100 | < 10 | 10 to 100 | – | – | – | < 5000 |
| CCn1c(-c2cccnc2[C@H](C)OC)c2c3cc(ccc31)-c1cc(C(F)F)cc(n1)C[C@H](NC(=O)[C@H](C1CCCC1)N(C)C(=O)[C@H]1CCN(C(=O)C#CC(C)(C)N3CCC3)C1)C(=O)N1CCC[C@H](N1)C(=O)OCC(C)(C)C2 [Compound A456] | 1000 to 10000 | 10 to 100 | < 10 | 10 to 100 | – | – | – | – |
| CCn1c(-c2cccnc2[C@H](C)OC)c2c3cc(ccc31)-c1cccc(c1)C[C@H](NC(=O)[C@H](C(C)C)N(C)C(=O)[C@H]1CCN(C(=O)C#CC3CCO3)C1)C(=O)N1CC(Br)C[C@H](N1)C(=O)OCC(C)(C)C2 (stereo partly shown) [Compound A508] | > 10000 | 100 to 1000 | – | – | – | – | – | – |
| CC#CC(=O)N1CC[C@]2(CCC([C@H](C(=O)N[C@H]3Cc4nc(cs4)-c4ccc5c(c4)c(c(-c4cccnc4[C@H](C)OC)n5CC)CC(C)(C)COC(=O)[C@@H]4CCCN(N4)C3=O)C(C)C)C2=O)C1 (stereo partly shown) [Compound A511] | 1000 to 10000 | 100 to 1000 | < 10 | 100 to 1000 | – | – | – | – |
| CCn1c(-c2cccnc2[C@H](C)OC)c2c3cc(ccc31)-c1cccc(c1)C[C@H](NC(=O)[C@H](C(C)C)N(C)C(=O)[C@H]1CCN(C(=O)C#C[C@@H]3CC(F)(F)CN3C)C1)C(=O)N1CCC[C@H](N1)C(=O)OCC(C)(C)C2 [Compound A526] | > 10000 | 10 to 100 | < 10 | 10 to 100 | – | – | – | – |
| CCn1c(-c2cc(C3CCN(C)CC3)cnc2[C@H](C)OC)c2c3cc(ccc31)-c1cc(O)cc(c1)C[C@H](NC(=O)[C@H](C(C)C)N(C)C(=O)[C@@H]1OCC[C@@H]1c1ccccc1)C(=O)N1CCC[C@H](N1)C(=O)OCC(C)(C)C2 [Compound A577] | – | – | < 10 | – | – | 10 to 100 | – | < 5000 |
| CCn1c(-c2cc(N3CCN(C)CC3)cnc2[C@H](C)OC)c2c3cc(ccc31)-c1cc(O)cc(c1)C[C@H](NC(=O)[C@H](C(C)C)N(C)C(=O)[C@@H]1OCC[C@@H]1c1ccccc1)C(=O)N1CCC[C@H](N1)C(=O)OCC(C)(C)C2 [Compound A594] | – | – | < 10 | 10 to 100 | – | – | 10 to 100 | < 5000 |
